Active and inactive are the calls of the source.
Legend:
BJ [1] = assay: cells; format: functional, cell-based; conditions: Homo sapiens
[2] = cytotoxicity toward DRD oncogenic fibroblasts, dose response, cell-based, non-viral oncogenic, luminescence (AID 1934); format: functional; conditions: Homo sapiens
BJ [3] = assay: cytotoxicity toward BJ-TERT-LT-ST fibroblasts, dose response, cell-based, RAS-independent, luminescence (AID 1935); format: functional; conditions: Homo sapiens;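 also: BJ fibroblasts immortalized with TERT plus LT and ST oncogenes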
BJ [4] = assay: cytotoxicity toward BJ-TERT fibroblasts, dose response, cell-based, RAS-independent, luminescence (AID 1933); format: functional; conditions: Homo sapiens
BJ [5] = assay: cytotoxicity toward Ras-transformed BJeLR fibroblasts, dose response, cell-based, alamar blue fluorescence, cherrypicked samples (AID 2631); format: functional; conditions: Homo sapiens;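 also: confirmatory dose-response assay in RAS-dependent BJ fibroblasts engineered with TERT, LT and ST, with cytotoxicity read by fluorescence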
HEK293 [6] = assay: cells; format: functional, cell-based; conditions: Homo sapiens
HEK293 [7] = assay: cells; format: functional, cell-based; conditions: Homo sapiens; remark: listed apart in the source
Cysteine protease ATG4B = Cysteine protease ATG4B (Homo sapiens, UniProt Q9Y4P1); format: functional;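 also: Fluorescence-based dose-response confirmation assay measuring inhibition of ATG4B activity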
Chain of Cysteine protease ATG4B (Q9Y4P1 whole entry, the tested form may be a part): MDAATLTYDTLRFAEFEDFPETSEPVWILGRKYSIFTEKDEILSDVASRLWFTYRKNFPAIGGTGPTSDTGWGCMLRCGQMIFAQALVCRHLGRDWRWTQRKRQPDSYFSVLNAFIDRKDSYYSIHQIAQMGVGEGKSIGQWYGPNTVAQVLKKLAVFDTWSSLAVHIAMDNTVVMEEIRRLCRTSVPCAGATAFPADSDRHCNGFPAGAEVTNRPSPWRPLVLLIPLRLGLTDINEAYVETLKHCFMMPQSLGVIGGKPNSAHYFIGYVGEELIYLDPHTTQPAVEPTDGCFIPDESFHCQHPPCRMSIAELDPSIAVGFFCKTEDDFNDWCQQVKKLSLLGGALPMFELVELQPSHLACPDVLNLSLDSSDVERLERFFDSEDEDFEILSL

[8] = target: Nucleotide-binding oligomerization domain-containing protein 2 (Homo sapiens, UniProt Q9HC29); assay: NOD2 signaling inhibitors, cell-based, luminescence, uHTS, HEK293 (AID 1566); format: functional
Chain of Nucleotide-binding oligomerization domain-containing protein 2 (Q9HC29 whole entry, the tested form may be a part): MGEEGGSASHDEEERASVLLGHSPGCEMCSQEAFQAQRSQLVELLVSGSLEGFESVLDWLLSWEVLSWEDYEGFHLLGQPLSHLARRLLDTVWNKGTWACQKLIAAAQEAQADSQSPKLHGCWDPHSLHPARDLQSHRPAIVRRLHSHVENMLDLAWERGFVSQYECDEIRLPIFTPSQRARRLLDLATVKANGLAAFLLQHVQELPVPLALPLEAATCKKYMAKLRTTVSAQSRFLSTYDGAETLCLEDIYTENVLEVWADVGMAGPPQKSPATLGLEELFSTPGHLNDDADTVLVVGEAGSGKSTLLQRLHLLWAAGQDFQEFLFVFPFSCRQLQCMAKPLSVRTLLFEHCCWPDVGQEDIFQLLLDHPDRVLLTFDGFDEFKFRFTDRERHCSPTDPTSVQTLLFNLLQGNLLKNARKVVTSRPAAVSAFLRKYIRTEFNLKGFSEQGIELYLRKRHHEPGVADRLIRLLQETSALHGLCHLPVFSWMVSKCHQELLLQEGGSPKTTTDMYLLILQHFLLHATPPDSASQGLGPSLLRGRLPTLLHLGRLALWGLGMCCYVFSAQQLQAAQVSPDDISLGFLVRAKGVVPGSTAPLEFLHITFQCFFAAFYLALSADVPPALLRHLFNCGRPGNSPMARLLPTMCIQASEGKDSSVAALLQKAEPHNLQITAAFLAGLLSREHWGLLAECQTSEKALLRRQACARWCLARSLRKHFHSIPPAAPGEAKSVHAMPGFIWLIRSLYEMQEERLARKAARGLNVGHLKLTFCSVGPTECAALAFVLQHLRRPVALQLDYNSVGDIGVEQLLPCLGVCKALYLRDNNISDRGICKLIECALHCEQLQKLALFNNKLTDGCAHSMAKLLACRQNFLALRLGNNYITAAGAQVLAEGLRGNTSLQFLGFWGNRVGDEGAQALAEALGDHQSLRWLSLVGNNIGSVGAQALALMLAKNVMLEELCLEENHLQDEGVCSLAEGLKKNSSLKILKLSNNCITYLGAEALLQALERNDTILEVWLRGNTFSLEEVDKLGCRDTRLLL

Phospholipase A2 = Phospholipase A2 (Homo sapiens, UniProt P04054); format: functional;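 also: confirmatory dose-response counterscreen on phospholipase A2, testing hits that came from an ultra-high-throughput screen for ATG4B inhibitors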
Chain of Phospholipase A2 (P04054 whole entry): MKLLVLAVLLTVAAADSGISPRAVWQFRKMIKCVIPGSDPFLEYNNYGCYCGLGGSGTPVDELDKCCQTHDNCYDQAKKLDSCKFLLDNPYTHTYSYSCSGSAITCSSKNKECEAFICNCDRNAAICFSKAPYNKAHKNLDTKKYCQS

HEK293 [9] = assay: cells; format: functional, cell-based; conditions: Homo sapiens; remark: listed apart in the source
HEK293 [10] = assay: NOD2 signaling inhibitors in MDP-stimulated cells, cell-based, uHTS, luminescence (AID 2001); format: functional; conditions: Homo sapiens
HEK293 [11] = assay: NOD1 signaling inhibitors, primary screen, cell-based, luminescence, uHTS (AID 1578); format: functional; conditions: Homo sapiens
[12] = target: T1, Sentrin-specific protease 6 (Homo sapiens, UniProt Q9GZR1); assay: SAR Analysis of small molecule inhibitors of Sentrin-specific protease 6 (SENP6) using a Luminescent assay. [Related pubchem assays (depositor defined):AID2582, AID2599]; format: functional
T1 sequence (Q9GZR1 whole entry): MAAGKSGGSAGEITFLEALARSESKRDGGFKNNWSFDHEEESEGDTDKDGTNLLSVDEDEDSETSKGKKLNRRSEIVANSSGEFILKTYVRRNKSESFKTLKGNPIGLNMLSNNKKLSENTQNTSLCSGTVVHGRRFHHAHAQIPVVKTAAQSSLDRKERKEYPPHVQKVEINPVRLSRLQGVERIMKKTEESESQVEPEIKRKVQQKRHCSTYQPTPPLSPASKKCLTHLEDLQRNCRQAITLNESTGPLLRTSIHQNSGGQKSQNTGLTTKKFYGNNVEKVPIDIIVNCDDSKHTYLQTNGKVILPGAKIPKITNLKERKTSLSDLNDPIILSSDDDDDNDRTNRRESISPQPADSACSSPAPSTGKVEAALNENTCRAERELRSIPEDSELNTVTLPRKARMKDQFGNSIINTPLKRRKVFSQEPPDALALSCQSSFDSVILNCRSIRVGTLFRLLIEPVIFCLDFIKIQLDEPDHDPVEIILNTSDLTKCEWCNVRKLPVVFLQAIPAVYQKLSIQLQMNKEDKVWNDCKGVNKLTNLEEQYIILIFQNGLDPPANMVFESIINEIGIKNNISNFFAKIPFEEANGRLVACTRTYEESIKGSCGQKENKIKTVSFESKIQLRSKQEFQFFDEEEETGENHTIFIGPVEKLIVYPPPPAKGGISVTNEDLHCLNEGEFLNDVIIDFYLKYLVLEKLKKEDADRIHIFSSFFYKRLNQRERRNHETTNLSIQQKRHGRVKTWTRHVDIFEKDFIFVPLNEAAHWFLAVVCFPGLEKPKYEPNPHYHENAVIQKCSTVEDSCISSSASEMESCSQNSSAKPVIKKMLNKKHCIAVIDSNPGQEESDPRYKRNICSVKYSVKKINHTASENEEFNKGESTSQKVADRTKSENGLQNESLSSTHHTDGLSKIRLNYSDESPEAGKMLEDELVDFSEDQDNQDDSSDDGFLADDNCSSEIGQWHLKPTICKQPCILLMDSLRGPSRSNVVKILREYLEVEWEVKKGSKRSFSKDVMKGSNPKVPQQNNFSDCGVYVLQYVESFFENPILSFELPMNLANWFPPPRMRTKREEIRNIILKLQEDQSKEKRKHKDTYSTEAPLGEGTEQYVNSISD

[13] = target: T2, Sentrin-specific protease 7 (Homo sapiens, UniProt Q9BQF6); assay: SENP7 protease inhibitors, SAR follow-up, biochemical, luminescence (AID 504497); format: functional
T2 sequence (Q9BQF6 whole entry): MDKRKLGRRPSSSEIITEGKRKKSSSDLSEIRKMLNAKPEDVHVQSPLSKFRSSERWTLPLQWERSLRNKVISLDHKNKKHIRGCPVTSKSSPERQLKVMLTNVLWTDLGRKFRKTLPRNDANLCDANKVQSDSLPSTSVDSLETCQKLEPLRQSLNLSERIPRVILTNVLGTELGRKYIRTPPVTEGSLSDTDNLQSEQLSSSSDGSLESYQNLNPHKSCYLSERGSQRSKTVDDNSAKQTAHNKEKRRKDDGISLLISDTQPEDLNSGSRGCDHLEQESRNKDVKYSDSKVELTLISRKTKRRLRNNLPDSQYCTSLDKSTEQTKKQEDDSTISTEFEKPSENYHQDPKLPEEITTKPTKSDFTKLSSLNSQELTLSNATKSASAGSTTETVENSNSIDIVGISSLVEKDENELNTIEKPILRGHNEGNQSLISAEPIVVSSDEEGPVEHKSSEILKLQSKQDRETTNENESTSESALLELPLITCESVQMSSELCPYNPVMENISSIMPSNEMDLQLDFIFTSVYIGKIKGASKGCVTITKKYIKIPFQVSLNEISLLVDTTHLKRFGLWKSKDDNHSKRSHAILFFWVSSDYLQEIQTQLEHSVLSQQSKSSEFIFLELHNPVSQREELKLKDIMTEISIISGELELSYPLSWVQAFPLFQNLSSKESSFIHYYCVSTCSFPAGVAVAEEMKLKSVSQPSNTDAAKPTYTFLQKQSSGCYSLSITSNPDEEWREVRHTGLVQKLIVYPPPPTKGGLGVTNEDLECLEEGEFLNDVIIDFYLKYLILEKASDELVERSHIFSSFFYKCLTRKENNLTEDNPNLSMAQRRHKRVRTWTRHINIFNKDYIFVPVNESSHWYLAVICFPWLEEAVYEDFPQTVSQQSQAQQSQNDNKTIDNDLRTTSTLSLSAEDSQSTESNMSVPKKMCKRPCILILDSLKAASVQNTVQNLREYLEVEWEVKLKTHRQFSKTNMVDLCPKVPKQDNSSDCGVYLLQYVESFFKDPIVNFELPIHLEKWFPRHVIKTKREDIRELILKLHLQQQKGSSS

Caspase-3 = target: T3, Caspase-3 (Homo sapiens, UniProt P42574); assay: SAR Analysis of small molecule inhibitors of Sentrin-specific proteases (SENPs) using a Caspase-3 Selectivity assay. [Related pubchem assays (depositor defined):AID2540, AID2599, AID434973, AID489001]; format: functional
T3 sequence (P42574 whole entry): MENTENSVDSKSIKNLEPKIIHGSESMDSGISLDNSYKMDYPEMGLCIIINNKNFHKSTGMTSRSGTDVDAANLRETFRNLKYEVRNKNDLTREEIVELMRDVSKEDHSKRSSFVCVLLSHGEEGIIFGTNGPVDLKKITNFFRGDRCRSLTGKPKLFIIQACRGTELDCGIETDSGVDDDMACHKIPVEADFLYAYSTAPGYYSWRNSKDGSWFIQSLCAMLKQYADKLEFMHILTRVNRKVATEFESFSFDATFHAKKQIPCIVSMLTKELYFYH

[14] = target: T4, Sentrin-specific protease 8 (Homo sapiens, UniProt Q96LD8); assay: SENP8 protease inhibitors, SAR follow-up, biochemical, luminescence (AID 504501); format: functional
T4 sequence (Q96LD8 whole entry): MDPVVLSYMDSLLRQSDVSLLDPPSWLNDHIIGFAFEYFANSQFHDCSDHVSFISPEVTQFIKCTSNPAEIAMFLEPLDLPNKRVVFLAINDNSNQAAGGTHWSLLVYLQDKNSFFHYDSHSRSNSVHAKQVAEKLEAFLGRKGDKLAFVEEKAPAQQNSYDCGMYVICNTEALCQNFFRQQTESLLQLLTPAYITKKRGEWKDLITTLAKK

[15] = HeLa cell cytotoxicity, dose response, cytotoxicity control for MgcRacGAP inhibitor project (AID 624300); format: functional
[16] = target: T5, Rac GTPase-activating protein 1 (Homo sapiens, UniProt Q9H0H5); assay: MgcRacGAP GTPase-activating activity inhibitors, confirmation, biochemical, ADP Hunter fluorescence, primary and confirmatory (AID 624330); format: functional
T5 sequence (Q9H0H5 whole entry): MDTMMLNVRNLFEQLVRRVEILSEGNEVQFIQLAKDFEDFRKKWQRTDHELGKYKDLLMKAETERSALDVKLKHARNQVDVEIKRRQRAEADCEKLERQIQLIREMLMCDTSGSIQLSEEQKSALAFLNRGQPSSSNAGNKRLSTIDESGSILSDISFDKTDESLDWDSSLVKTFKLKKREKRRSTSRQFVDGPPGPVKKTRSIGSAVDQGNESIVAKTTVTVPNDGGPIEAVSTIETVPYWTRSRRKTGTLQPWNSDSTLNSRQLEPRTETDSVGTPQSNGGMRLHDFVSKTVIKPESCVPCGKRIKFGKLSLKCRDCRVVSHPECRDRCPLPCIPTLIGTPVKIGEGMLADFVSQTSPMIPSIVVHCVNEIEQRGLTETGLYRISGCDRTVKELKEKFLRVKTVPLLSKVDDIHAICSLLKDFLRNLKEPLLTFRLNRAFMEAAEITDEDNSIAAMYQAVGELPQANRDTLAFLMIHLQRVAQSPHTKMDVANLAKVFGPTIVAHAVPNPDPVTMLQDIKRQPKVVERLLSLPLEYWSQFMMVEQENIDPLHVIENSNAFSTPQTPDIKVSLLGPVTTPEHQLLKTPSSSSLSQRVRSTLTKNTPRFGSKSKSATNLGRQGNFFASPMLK

Prothrombin = Prothrombin (Bos taurus, UniProt P00735); assay: thrombin inhibition, dose response, biochemical, fluorescence polarization, uHTS hits (AID 602369); format: functional
[17] = target: Heat shock protein HSP 90-alpha (Homo sapiens, UniProt P07900); format: functional, organism-based
[18] = target: 72 kDa type IV collagenase (Homo sapiens, UniProt P08253); assay: Dose Response validation of uHTS RPN11 inhibitor hits using a MMP-2 Fluorescence assay.; format: functional
Chain of 72 kDa type IV collagenase (P08253 whole entry): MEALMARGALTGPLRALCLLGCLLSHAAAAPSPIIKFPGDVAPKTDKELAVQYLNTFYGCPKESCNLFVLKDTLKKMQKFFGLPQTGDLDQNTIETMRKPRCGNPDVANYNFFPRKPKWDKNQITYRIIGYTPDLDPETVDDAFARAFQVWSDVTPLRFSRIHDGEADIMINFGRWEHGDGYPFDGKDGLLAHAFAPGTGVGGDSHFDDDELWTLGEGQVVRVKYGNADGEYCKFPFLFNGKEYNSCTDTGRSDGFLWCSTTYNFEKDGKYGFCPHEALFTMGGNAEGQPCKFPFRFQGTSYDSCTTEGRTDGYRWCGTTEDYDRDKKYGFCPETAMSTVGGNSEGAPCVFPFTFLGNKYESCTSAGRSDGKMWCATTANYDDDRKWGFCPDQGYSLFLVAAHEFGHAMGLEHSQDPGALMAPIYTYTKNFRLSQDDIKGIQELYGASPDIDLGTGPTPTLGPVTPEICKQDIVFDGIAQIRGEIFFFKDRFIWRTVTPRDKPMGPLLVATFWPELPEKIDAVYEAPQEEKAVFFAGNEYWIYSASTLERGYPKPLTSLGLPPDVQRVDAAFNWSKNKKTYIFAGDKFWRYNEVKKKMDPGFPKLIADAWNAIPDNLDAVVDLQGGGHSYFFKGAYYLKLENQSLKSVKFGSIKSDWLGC

[19] = target: 26S proteasome non-ATPase regulatory subunit 14 (Homo sapiens, UniProt O00487); assay: inhibition of proteasome subunit RPN11 – biochemical, fluorescence polarization, uHTS hits, confirmation (AID 602368); format: functional
Chain of 26S proteasome non-ATPase regulatory subunit 14 (O00487 whole entry): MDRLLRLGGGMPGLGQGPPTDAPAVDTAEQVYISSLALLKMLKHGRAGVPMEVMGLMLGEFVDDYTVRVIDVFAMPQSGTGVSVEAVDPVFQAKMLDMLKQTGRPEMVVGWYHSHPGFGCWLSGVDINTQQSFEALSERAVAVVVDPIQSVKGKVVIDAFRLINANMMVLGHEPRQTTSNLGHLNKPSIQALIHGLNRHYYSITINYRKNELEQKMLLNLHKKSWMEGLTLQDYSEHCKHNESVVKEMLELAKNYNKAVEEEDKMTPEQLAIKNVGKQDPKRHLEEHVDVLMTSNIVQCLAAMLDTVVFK

[20] = target: T6, DNA repair protein RAD52 homolog (Homo sapiens, UniProt P43351); format: functional, biochemical
T6 sequence (P43351 whole entry): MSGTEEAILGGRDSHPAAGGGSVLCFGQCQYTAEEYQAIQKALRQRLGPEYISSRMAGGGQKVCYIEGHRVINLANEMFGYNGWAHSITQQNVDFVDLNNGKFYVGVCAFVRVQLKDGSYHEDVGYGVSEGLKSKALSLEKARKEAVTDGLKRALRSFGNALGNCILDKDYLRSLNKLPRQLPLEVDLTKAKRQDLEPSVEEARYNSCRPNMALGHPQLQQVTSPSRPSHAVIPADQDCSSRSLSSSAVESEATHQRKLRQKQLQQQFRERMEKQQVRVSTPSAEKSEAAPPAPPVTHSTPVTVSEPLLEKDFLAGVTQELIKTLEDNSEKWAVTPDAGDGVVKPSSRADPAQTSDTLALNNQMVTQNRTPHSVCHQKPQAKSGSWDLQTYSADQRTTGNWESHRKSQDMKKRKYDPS

SMILES | EC50 (BJ [1]) | EC50 [2] | EC50 (BJ [3]) | EC50 (BJ [4]) | EC50 (BJ [5]) | IC50 (Cysteine protease ATG4B) | IC50 (Phospholipase A2) | IC50 [12] | IC50 [13] | IC50 (Caspase-3) | IC50 [14] | other results
O=C1SC(Cc2ccccc2)C(=O)N1c1ccccc1 (stereo not given) | > 150 µM (not active) | 20.8 µM (active) | > 150 µM (not active) | 5.85 µM (active) | > 66.7 µM (inactive) | – | – | – | – | – | – | –
CC(=O)Nc1ccc(C(=O)Nc2nc(-c3cc(C)n(Cc4ccccc4)c3C)cs2)cc1 | – | – | – | – | – | 10.2 µM (active) | 5.37 µM (active) | – | – | – | – | IC50 (HEK293 [6]): > 20 µM (inactive); IC50 (HEK293 [7]): > 20 µM (inactive); EC50 [8]: > 20 µM (inactive); IC50 (HEK293 [9]): > 20 µM (inactive); IC50 (HEK293 [10]): > 20 µM (inactive); EC50 (HEK293 [11]): > 20 µM (inactive)
O=C(O)c1ccc(N/N=C/c2cn(Cc3ccccc3)c3ccccc23)cc1 | – | – | – | – | – | – | – | > 99 µM (inactive) | 96.9 µM (active) | > 99 µM (inactive) | > 99 µM (inactive) | –
CCCC(=O)Nc1ccc(-c2nc3cc(Cl)ccc3s2)cc1 | – | – | – | – | – | – | – | 84.4 µM (active) | 10.9 µM (active) | 18.7 µM (active) | 82.4 µM (active) | –
CCCCCCCCCCCCCCCC(O)C[N+](C)(C)CCO (stereo not given) | – | – | – | – | – | 7.58 µM (active) | 6.53 µM (active) | – | – | – | – | CC50 [15]: 33.4 µM (active); IC50 [16]: 86 µM (active); IC50 (Prothrombin): 45.1 µM (active); AC50 [17]: 5 µM (active); IC50 [18]: 81.8 µM (active); IC50 [19]: 22.1 µM (active); AC50 [20]: < 30.4 µM (active)
COc1cccc(/C=C2\SC(=S)N(CCCC(=O)Nc3cc(C)on3)C2=O)c1 | > 150 µM (not active) | > 150 µM (not active) | > 150 µM (not active) | 3.22 µM (inconclusive) | > 133 µM (inactive) | – | – | – | – | – | – | –
